Measurements: BindingDB's records for doi:10.7270/Q2G73C4V (Nmmlsc, 2010)

Target: T1, Regulator of G-protein signaling 8 (Homo sapiens, UniProt P57771)
T1 sequence (P57771 whole entry): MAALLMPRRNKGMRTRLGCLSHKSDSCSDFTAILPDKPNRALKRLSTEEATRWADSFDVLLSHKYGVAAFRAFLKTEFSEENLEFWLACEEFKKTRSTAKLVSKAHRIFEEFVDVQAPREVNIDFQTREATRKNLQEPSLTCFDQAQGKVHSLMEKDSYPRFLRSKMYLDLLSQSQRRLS
Experiment: RGS8-Galphao interaction modulators, SAR follow-up, biochemical, multiplex bead flow cytometry, SAR compounds (AID 2307)

Row | Ki [nM] | Structure (SMILES)
1 | 20 | NS(=O)(=O)c1ccc(N=NCc2ccc(O)c(O)c2O)c([N+](=O)[O-])c1 [4-[[(E)-(2,3-dihydroxy-4-oxo-1-cyclohexa-2,5-dienylidene)methyl]hydrazo]-3-nitrobenzenesulfonamide]
2 | 100 | O=C(COc1ccccc1C(=O)NN=Cc1ccc(O)c(O)c1)NN=Cc1ccc(O)c(O)c1 [N''-[(Z)-(3-hydroxy-4-oxo-1-cyclohexa-2,5-dienylidene)methyl]-2-[2-[[(Z)-(3-hydroxy-4-oxo-1-cyclohexa-2,5-dienylidene)methyl]hydrazo]-2-oxoethoxy]benzohydrazide]
